# Laboratory results reported in PubChem BioAssay AID1996.
# Conditions: buffer; pH 7.4; 200.0 µM
row,SMILES,solubility kinetic [µg/mL]
1,COc1ccc2cc(C3(C)NC(=O)N(CC(=O)N4CCCCC4)C3=O)ccc2c1 (centres undefined),14.6
2,CC(C)(C)c1ccc(CCC2OCC(CN3CCOCC3)O2)cc1 (centres undefined),40
3,O=C(c1ccc(F)cc1)N1CCCC(C(=O)N2CCCCC2)C1 (centres undefined),> 47.8
4,CC(Oc1ccc(Br)cc1Cl)C(=O)Nc1ccncc1 (centres undefined),45.9
5,COc1ccc(NC(=S)NCCN2CCOCC2)cc1,> 44.3
6,CCn1c(Cc2cccs2)nnc1SCC(=O)NC1CC1,> 48.4
7,Cc1ccc2nc(SC(C)C(=O)N3CC(C)OC(C)C3)[nH]c2c1 (centres undefined),49.4
8,CN(C)c1ncc([N+](=O)[O-])cc1C(F)(F)F,5.2
9,Cc1c([N+](=O)[O-])c(C(=O)NC2CCCC2)nn1C,> 37.8
10,CCCC(CCC(=O)Nc1cccc([N+](=O)[O-])c1)C(=O)O (centres undefined),> 44.1
11,CSc1ncccc1C(=O)NCC1CCCCC1,38.4
12,O=C(Nc1ccc(N2CCOCC2)cc1)c1ccc([N+](=O)[O-])o1,13.2
13,COCC(=O)Nc1ccc(Br)cc1C,35.8
14,Cc1ccc(NS(=O)(=O)c2cccc([N+](=O)[O-])c2)nc1,14.6
15,Cc1nnc(NC(=O)c2ccc(Br)o2)s1,> 43.2
16,NS(=O)(=O)c1ccc(CCNC(=O)NC2CCCCC2)cc1,> 48.8
17,CCC(CC)C(=O)c1c[nH]c(C(=O)NC2CCCCCC2)c1,2
18,COCCCNc1nc(N)c([N+](=O)[O-])c(Nc2cc(OC)ccc2OC)n1,< 0.1

row,SMILES,solubility kinetic [µg/mL]
1,Cc1ccc(C(=O)CCC(=O)N2CCC(C(N)=O)CC2)s1,> 46.3
2,S=c1[nH]nc(CSCCOc2ccc(Cl)cc2Cl)o1,> 50.6
3,COc1ccc(/C=C2\SC(N)=NC2=O)cc1,3.9
4,CN(c1ccc(OCC(=O)OCC(=O)Nc2ccc(OC(F)F)cc2)cc1)S(=O)(=O)c1cccs1,19.1
5,O=C1CN(C(=O)c2cccc([N+](=O)[O-])c2)CC(=O)N1,> 39.5
6,CCOC(=O)c1cc(C)nc(N2CCCCC2)c1C#N,11.5
7,Nn1c(SCC(=O)NCCc2ccc(S(N)(=O)=O)cc2)nnc1C1CCCCC1,> 65.8
8,CCN(CC)CCC(O)(c1ccccc1)C1CCCCC1 (centres undefined),24.3
9,COc1cccc(-n2cc(-c3ccc(F)cc3)[nH]c2=S)c1,2.4
10,O=[N+]([O-])c1ccc(Cl)c2cccnc12,24.6
11,CCOc1cc(N2CCOCC2)c(OCC)cc1NC(=O)c1cc(S(=O)(=O)N2CCOCC2)ccc1C,> 80
12,COc1ccc(S(=O)(=O)N2CCCCC2)cc1NC(=O)C1CC(=O)N(Cc2ccco2)C1 (centres undefined),> 69.2
13,COc1ccc(S(=O)(=O)Nc2c(C)nn(C)c2C)cc1Br,> 56.1
14,CCNS(=O)(=O)c1ccc(CCC(=O)N2CCC(C)CC2)cc1,49
15,O=C(O)c1c(-n2cccc2)sc2c1CCCC2,> 37.1
16,Cc1ccc(C)c(NC(=O)CCN2CCCCC2)c1,> 39.1
17,CC(C)Cn1c(N)cc(=O)n(C)c1=O,22.2
18,NC(N)=O,> 9

# Next, values leading:
row,solubility kinetic [µg/mL],SMILES
1,50.9,O=C(/C=C/c1cccc([N+](=O)[O-])c1)N1CCN(Cc2ccccc2)CC1
2,15.4,O=C(NCC(F)(F)F)c1ccc(S(=O)(=O)Nc2ccccc2N2CCCC2)cc1
3,> 41,C=CCNC(=O)N1CCc2[nH]c3ccc(F)cc3c2C1
4,29.5,CCCCN(CC)C(=O)c1ccc(Cl)cc1
5,31.2,COc1ccccc1NC(=O)c1cc([N+](=O)[O-])ccc1N1CCOCC1
6,0.5,Cc1ccc(C(=O)O/N=C(\N)Cc2cccc3ccccc23)cc1
7,4.3,O=C(COc1cccnc1[N+](=O)[O-])c1c[nH]c2ccccc12
8,> 48.2,CC(C)N(CC#CC(O)(c1ccccc1)c1ccccc1)C(C)C
9,25.1,CC1CCCCN1C(=O)COC(=O)/C=C/c1ccc2ccccc2n1 (centres undefined)
10,5.3,O=C(COC(=O)c1ccc2c(c1)OCCO2)NCCc1ccc(F)cc1
11,28.6,Clc1cccc(Cl)c1-c1noc(-c2ccno2)n1
12,> 36.9,NC(=O)COC(=O)c1cc(=O)[nH]c2ccccc12
13,> 49.4,CCCCC1(C)NC(=O)N(CC(=O)N2CCc3ccccc32)C1=O (centres undefined)
14,> 50,CN(CCc1ccccn1)C(=O)c1cccnc1Oc1ccccc1
15,3.1,NC(=O)c1ccccc1NC(=O)c1ccc2c(c1)OCO2
16,50.7,FC(F)Oc1ccc(-c2c[n+]3c(n2-c2ccccc2)CCCCC3)cc1
17,> 45.8,COc1ccccc1C(=O)NS(=O)(=O)c1ccc(C)cc1
18,7.1,COc1ccc(N2CCN(C(=O)c3cccc(S(=O)(=O)N4CCc5ccccc54)c3)CC2)cc1
19,3.8,O=C(CNC(=O)c1ccccc1F)c1ccc(Br)cc1
20,> 76.7,COCCN(C(=O)c1cc(-c2ccco2)nc2ccccc12)c1c(N)n(Cc2ccccc2)c(=O)[nH]c1=O
21,> 50.7,CN(CC(=O)Nc1ccc(F)c(F)c1F)C(=O)/C=C/c1ccco1
22,37.7,O=C(NCCc1ccccn1)c1cc2ccccc2o1
23,1.3,CC(=O)Nc1cccc(C(=O)OC(C)C(=O)N2CCc3ccccc32)c1 (centres undefined)
24,> 44.8,O=C(CCNS(=O)(=O)c1ccccc1)N1CCOCC1

row,solubility kinetic [µg/mL],SMILES
1,> 45.5,COC(=O)c1ccccc1NC(=O)CSc1ncccn1
2,43.6,CCC1Oc2ccc(C)cc2N(CC(=O)NCC2CCCO2)C1=O (centres undefined)
3,11.6,CN(C(=O)COC(=O)c1cc(=O)[nH]c2ccccc12)c1ccccc1
4,12.8,Cc1ccc(N2C(=O)c3ccccc3C(C)(C)C2=O)cc1
5,> 45.5,O=C(c1ccc(F)cc1F)N1CCN(c2ccccn2)CC1
6,49.1,CN(C)C(=O)c1ccc(NC(=O)c2sccc2-c2ccccc2)cc1
7,26.5,COc1ccc(NC(=O)C(Cc2ccccc2)n2cccc2)cc1 (centres undefined)
8,33,Cc1nc2ccccc2nc1OCC(=O)Nc1ccc(F)cc1
9,> 47.3,Nc1nccnc1C(=O)OCC(=O)NNC(=O)c1ccccc1
10,46,CN(CCOc1ccccc1)CC(O)COCc1ccccc1F (centres undefined)
11,33.6,Nc1nc(SCc2ccc(F)cc2)ns1
12,9.7,Fc1ccc(SCCc2cccc[nH+]2)cc1.O=P([O-])(O)O
13,> 39.3,Cc1ccc(-n2ccnc2SCC(=O)O)cc1C
14,11.6,O=C(NC1CCCc2ccccc21)c1ccc2c(c1)OCO2 (centres undefined)
15,38.3,O=C(CSc1cccc[n+]1[O-])c1ccc(Cl)s1
16,38.4,C=CCN(Cc1nc(-c2ccccc2)no1)C(=O)c1ccco1
17,38.1,Oc1ccc(NCc2cccc(OCc3ccccc3)c2)cc1
18,< 0.3,O=[N+]([O-])c1cccc(/C=C/c2ccc3cccc(O)c3n2)c1
19,4.5,Cc1c(C(=O)OCC(=O)N2CCN(c3ccccc3)CC2)oc2ccccc12
20,> 43.7,Cc1ccc(S(=O)(=O)NC(=S)c2ccccc2)cc1
21,< 0.4,Cc1ccc(C)c(N(CC(=O)NC2CCCC2)S(=O)(=O)c2ccccc2)c1
22,9.6,COc1ccc(-c2cc(=O)oc3c(C)c(OCC(=O)N(C)C)ccc23)cc1
23,49.2,CC(C)(C)c1ccc(C(=O)NCCCNC(=O)c2cccnc2)cc1
24,> 51.9,O=C(c1cccc(Br)c1)N1CCN(c2ccccn2)CC1
